Measurements: a flash point compilation (Sun et al. 2020)

Compound | flash point [°C]
CC[Si](CC)(CC)CC [Tetraethylsilane] | 32.00

remark: another data set of the same source

Compound | flash point [°C]
CO[Si](CCCNCCN)(OC)OC [Aminoethylaminopropyltrimethoxysilane] | 96
C[Si](C)(C)N=C=N[Si](C)(C)C [Bis(trimethylsilyl)carbodiimide] | 42
CN(C(=O)C(F)(F)F)[Si](C)(C)C [N-Methyl-N-trimethylsilyltrifluoroacetamide] | 25
CC[Si](CC)(CC)CC [Tetraethylsilane] | 26
C[Si](C)(C)OB(O[Si](C)(C)C)O[Si](C)(C)C [Tris(trimethylsiloxy)boron] | 42
C=C[Si](C)(C)O[Si](C)(C)C [Vinylpentamethyldisiloxane] | 12

remark: another data set of the same source

Compound | flash point [°C]
[CH3][Sn]([CH3])([CH3])[Cl] [TRIMETHYLCHLOROTIN] | 97.00
CCC[CH2][Sn]([CH2]CCC)([CH2]CCC)[C](C)(C)C [t-BUTYLTRI n-BUTYLTIN] | 102.00

remark: another data set of the same source

Compound | flash point [°C]
C=C[CH2][Ge]([CH2]C=C)([CH2]C=C)[CH2]C=C [TETRAALLYLGERMANE] | 70.00
CC(C)[O][Ge]([O]C(C)C)([O]C(C)C)[O]C(C)C [TETRAISOPROPOXYGERMANE] | 68.00

Continued, values first:

flash point [°C] | Compound
55.00 | C=C[CH2][Ge]([Cl])([Cl])[Cl] [ALLYLTRICHLOROGERMANE]
48.00 | C=C[CH2][Ge]([CH2]C)([CH2]C)[CH2]C [ALLYLTRIETHYLGERMANE]
33.00 | [CH3][Ge]([CH3])([CH3])[CH](Cl)Cl [DICHLOROMETHYLTRIMETHYLGERMANE]
52.00 | C[CH2][Ge]([Cl])([Cl])[CH2]C [DIETHYLDICHLOROGERMANE]
-10.00 | C[N](C)[Ge]([CH3])([CH3])[CH3] [DIMETHYLAMINOTRIMETHYLGERMANE]
40.00 | CC[O][Ge]([CH3])([O]CC)[O]CC [METHYLTRIETHOXYGERMANE]
90.00 | CCC[CH2][Ge]([CH2]CCC)([CH2]CCC)[CH2]CCC [TETRA-n-BUTYLGERMANE]
62.00 | CC[O][Ge]([O]CC)([O]CC)[O]CC [TETRAETHOXYGERMANE]
-19.00 | [CH3][Ge]([CH3])([CH3])[CH3] [TETRAMETHYLGERMANE]
94.00 | CCC[CH2][Ge]([Cl])([CH2]CCC)[CH2]CCC [TRI-n-BUTYLCHLOROGERMANE]
78.00 | CCC[CH2][GeH]([CH2]CCC)[CH2]CCC [TRI-n-BUTYLGERMANE]
12.00 | [Cl][GeH]([Cl])[Cl] [TRICHLOROGERMANE]
38.00 | C[CH2][Ge]([Cl])([CH2]C)[CH2]C [TRIETHYLCHLOROGERMANE]
5.00 | C[CH2][GeH]([CH2]C)[CH2]C [TRIETHYLGERMANE]
66.00 | C[CH](C)[Ge]([Cl])([CH](C)C)[CH](C)C [TRIISOPROPYLCHLOROGERMANE]
1.00 | [CH3][Ge]([CH3])([CH3])[Cl] [TRIMETHYLCHLOROGERMANE]
82.00 | CCC[CH2][Ge]([Cl])([Cl])[Cl] [n-BUTYLTRICHLOROGERMANE]

remark: another data set of the same source

Compound | flash point [°C]
CC(=O)OCCC[Si](C)(Cl)Cl [3-ACETOXYPROPYLMETHYLDICHLOROSILANE] | 85.00
CO[Si](CCCOC(C)=O)(OC)OC [3-ACETOXYPROPYLTRIMETHOXYSILANE] | 93.00
CCO[Si](CCCCCCS(=O)(=O)N=[N+]=[N-])(OCC)OCC [6-AZIDOSULFONYLHEXYLTRIETHOXYSILANE] | 114.00
CC(=O)OCC[Si](Cl)(Cl)Cl [ACETOXYETHYLTRICHLOROSILANE] | 82.00
CC(=O)OC[Si](C)(C)C [ACETOXYMETHYLTRIMETHYLSILANE] | 20.00
C=CC(=O)O[Si](C)(C)C [ACRYLOXYTRIMETHYLSILANE] | 26.00
C=CC[Si](C)(C)N(C(C)C)C(C)C [ALLYLDIMETHYL(DIISOPROPYLAMINO)SILANE] | 62.00
C=CC[Si](O[Si](C)(C)C)(O[Si](C)(C)C)O[Si](C)(C)C [ALLYLTRIS(TRIMETHYLSILOXY)SILANE] | 67.00
C[SiH](C)Cc1ccccc1 [BENZYLDIMETHYLSILANE] | 65.00
CO[Si](C)(CCCNCCN)OC [N-(2-AMINOETHYL)-3-AMINOPROPYLMETHYLDIMETHOXYSILANE] | 90.00
C[Si](C)(C)CNCc1ccccc1 [N-BENZYLAMINOMETHYLTRIMETHYLSILANE] | 116.00
CO[Si](OC)(OC)c1ccc(N)cc1 [p-AMINOPHENYLTRIMETHOXYSILANE] | 180.00

Next, values leading:

flash point [°C] | Compound
73.00 | CCO[Si](C)(C)CCCN [3-AMINOPROPYLDIMETHYLETHOXYSILANE]
109.00 | CCO[Si](CCCCN)(OCC)OCC [4-AMINOBUTYLTRIETHOXYSILANE]
-20.00 | C=CC[SiH](C)C [ALLYLDIMETHYLSILANE]
9.00 | C[Si](C)(C)CN [AMINOMETHYLTRIMETHYLSILANE]
